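Dose response: 5 concentrations. Exposure: 48 h. Format: 96-well plates. Endpoint: linear interpolation; highest concentration if not reached. The concentration for 50% growth inhibition is given as GI50.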 Activity calls are given as the source filed them. No stated cut-off is given here; in the data, active = GI50 up to about 1.1 µM and inactive = higher.
Tests used:
Experiment in all cases: NCI anticancer screen, dose series, 48 h
DMS-273 = tested on: DMS-273
HCT-116 = tested on: HCT-116
SK-MEL-28 = tested on: SK-MEL-28
KM12 = tested on: KM12
DMS-114 = tested on: DMS-114
CCRF-CEM = tested on: CCRF-CEM
UO-31 = tested on: UO-31
RXF 631 = tested on: RXF 631
M14 = tested on: M14
KM-20L2 = tested on: KM-20L2
OVCAR-8 = tested on: OVCAR-8
ACHN = tested on: ACHN
IGROV-1 = tested on: IGROV-1
NCI-H460 = tested on: NCI-H460
TK-10 = tested on: TK-10
UACC-62 = tested on: UACC-62
OVCAR-5 = tested on: OVCAR-5
U-251 = tested on: U-251
UACC-257 = tested on: UACC-257
SNB-19 = tested on: SNB-19
SNB-78 = tested on: SNB-78
A498 = tested on: A498
HL-60 = tested on: HL-60
A549 = tested on: A549
SR = tested on: SR
EKVX = tested on: EKVX
SF-295 = tested on: SF-295
HT-29 = tested on: HT-29
M19-MEL = tested on: M19-MEL
SK-OV-3 = tested on: SK-OV-3
HOP-62 = tested on: HOP-62
NCI-H522 = tested on: NCI-H522
RXF 393 = tested on: RXF 393
HOP-92 = tested on: HOP-92
NCI-H23 = tested on: NCI-H23
MOLT-4 = tested on: MOLT-4

Measured: GI50

COc1ccccc1-c1csc(CCC(N)C(=O)O)n1 (stereo unspecified)
inactive: DMS-273 > 100 µM | HCT-116 > 100 µM | SK-MEL-28 > 100 µM | KM12 > 100 µM | DMS-114 > 100 µM | CCRF-CEM > 100 µM | UO-31 > 100 µM | RXF 631 > 100 µM | M14 > 100 µM | KM-20L2 > 100 µM | OVCAR-8 > 100 µM | ACHN > 100 µM | IGROV-1 > 100 µM | NCI-H460 > 100 µM | TK-10 26.3 µM | UACC-62 > 100 µM | OVCAR-5 > 100 µM | U-251 > 100 µM | UACC-257 > 100 µM | SNB-19 > 100 µM | SNB-78 > 100 µM | A498 > 100 µM | HL-60 > 100 µM | A549 > 100 µM | SR > 100 µM | EKVX > 100 µM | SF-295 > 100 µM | HT-29 > 100 µM | M19-MEL > 100 µM | SK-OV-3 > 100 µM | HOP-62 > 100 µM | NCI-H522 > 100 µM | RXF 393 > 100 µM | HOP-92 > 100 µM | NCI-H23 > 100 µM | MOLT-4 > 100 µM
